Converted amounts (≈) assume the structure as drawn. Read-outs that look alike come from different tables or passages of the source.
Key:
[1] = system: lymphocytic leukemia P388; assay: Lymphocytic Leukemia P388 Test; type: in vivo; conditions: DBA/2 mice, efficacy criterion ≥125%
Protocol: The animals used were DBA/2 mice, all of one sex, weighing a minimum of 17 g and all within a 3 g weight range. There were three animals per test group. The tumor transplant was by intraperitoneal injection of 0.1 ml of dilute ascitic fluid containing 10^6 cells of lymphocytic leukemia P388. LL-D05139β was administered intraperitoneally on days 1, 5 and 9 (relative to tumor inoculation) at various doses. The animals were weighed and survivors recorded on a regular basis for 30 days. The ratio of survival time for treated (T)/control (C) animals was calculated. The positive control compound was 5-fluorouracil, given as a 60 mg/kg injection. The criterion for efficacy is T/C×100≥125%.

[2] = system: human lung carcinoma (LX-1); assay: Human tumor clonogenic assay, lung carcinoma; type: cell-based; conditions: for T/C / Av. No. of Colonies/Culture: Lung Carcinoma; for T/C: active if T/C ≤30%; for Av. No. of Colonies/Culture: colonies counted after 10-11 days, control 590
Protocol: (§1) This test was performed essentially by the method of A. Hamburger and S. Salmon, Primary bioassay of humor tumor stem cells., Science, 197: 461-463 (1977). Human colon carcinoma (CX-1) and human lung carcinoma (LX-1) tumors were obtained from the National Cancer Institute and propagated in athymic Balb/c mice. Freshly removed tumors were dispersed with trypsin 0.25% and 5×10^4 lung carcinoma cells or 1×10^5 colon carcinoma cells in soft (0.3%) agarose medium containing 0.1 ml of test drug were plated onto a solidified (0.5%) agarose base medium in 35 mm grided dishes. Cultures were incubated at 37° C. in a humidified 5% carbon dioxide in air atmosphere. Colonies were counted after 10-11 days. A compound is considered active if the treated/control (T/C) value is ≤30%, representing a 70% cell kill.

[3] = Stability in solution as a function of pH; type: physicochemical
[4] = system: human colon carcinoma (CX-1); assay: Human tumor clonogenic assay, colon carcinoma; type: cell-based
Protocol: as §1

[5] = system: Pasteurella multocida; assay: In vitro antibacterial activity, agar dilution; type: cell-based; conditions: Pasteurella multocida LL #117; Mueller-Hinton agar, 18 hours, 35° C.; read-out: Minimal Inhibitory Concentration
Protocol: (§2) This antibacterial agent is active in vitro against gram-positive and gram-negative bacteria when tested by the standard agar dilution procedure with Mueller-Hinton agar, and an inoculum of each test organism of approximately 10^4 colony-forming units delivered by a Steers replicating device. The minimal inhibitory concentration (mcg/ml) was defined as the lowest concentration of antibiotic LL-D05139β that inhibited visible growth after 18 hours incubation at 35° C.

[6] = system: Enterobacter aerogenes; assay: In vitro antibacterial activity, agar dilution; type: cell-based; conditions: Klebsiella aerogenes; Enterobacter aerogenes Stfd-79-14; Mueller-Hinton agar, 18 hours, 35° C.; read-out: Minimal Inhibitory Concentration
Protocol: as §2

[7] = system: Providencia stuarti; assay: In vitro antibacterial activity, agar dilution; type: cell-based; conditions: Mueller-Hinton agar, 18 hours, 35° C.
Protocol: as §2

[8] = system: Proteus morganii; assay: In vitro antibacterial activity, agar dilution; type: cell-based; conditions: Morganella morganii; Proteus morganii K-79-25; Mueller-Hinton agar, 18 hours, 35° C.; read-out: Minimal Inhibitory Concentration
Protocol: as §2

[9] = system: Salmonella sp.; assay: In vitro antibacterial activity, agar dilution; type: cell-based; conditions: Salmonella sp. QHC-77-3; Mueller-Hinton agar, 18 hours, 35° C.; read-out: Minimal Inhibitory Concentration
Protocol: as §2

[10] = system: Bacillus subtilis; assay: In vitro antibacterial activity, agar dilution; type: cell-based; conditions: ATCC6633; Bacillus subtilis ATCC 6633; Mueller-Hinton agar, 18 hours, 35° C.; read-out: Minimal Inhibitory Concentration
Protocol: as §2

[11] = system: Escherichia coli; assay: In vitro antibacterial activity, agar dilution; type: cell-based; conditions: 35° C., read-out: Minimal Inhibitory Concentration
Protocol: as §2

[12] = system: Enterococcus sp.; assay: In vitro antibacterial activity, agar dilution; type: cell-based; conditions: Mueller-Hinton agar, 18 hours, 35° C.
Protocol: as §2

[13] = system: Serratia marcescens; assay: In vitro antibacterial activity, agar dilution; type: cell-based; conditions: Serratia marcescens QHC-77-2; Mueller-Hinton agar, 18 hours, 35° C.; read-out: Minimal Inhibitory Concentration
Protocol: as §2

[14] = system: Acinetobacter calcoaceticus; assay: In vitro antibacterial activity, agar dilution; type: cell-based; conditions: 18 h, 35° C., read-out: Minimal Inhibitory Concentration
Protocol: as §2

[15] = system: Pseudomonas aeruginosa; assay: In vitro antibacterial activity, agar dilution; type: cell-based; conditions: 35° C., read-out: Minimal Inhibitory Concentration
Protocol: as §2

[16] = system: Micrococcus luteus; assay: In vitro antibacterial activity, agar dilution; type: cell-based; conditions: Micrococcus luteus PCI-1001; Mueller-Hinton agar, 18 hours, 35° C.; read-out: Minimal Inhibitory Concentration
Protocol: as §2

[17] = system: Enterobacter cloacae; assay: In vitro antibacterial activity, agar dilution; type: cell-based; conditions: Enterobacter cloacae K-79-16; Mueller-Hinton agar, 18 hours, 35° C.; read-out: Minimal Inhibitory Concentration
Protocol: as §2

[18] = system: Proteus rettgeri; assay: In vitro antibacterial activity, agar dilution; type: cell-based; conditions: Providencia rettgeri; Proteus rettgeri N-76-1; Mueller-Hinton agar, 18 hours, 35° C.; read-out: Minimal Inhibitory Concentration
Protocol: as §2

[19] = system: Klebsiella pneumoniae; assay: In vitro antibacterial activity, agar dilution; type: cell-based; conditions: 18 h, 35° C., read-out: Minimal Inhibitory Concentration
Protocol: as §2

[20] = system: Candida albicans; assay: In vitro antibacterial activity, agar dilution; type: cell-based; conditions: 18 h, 35° C., read-out: Minimal Inhibitory Concentration
Protocol: as §2

[21] = system: Staphylococcus aureus; assay: In vitro antibacterial activity, agar dilution; type: cell-based; conditions: Mueller-Hinton agar, 18 hours, 35° C.; for MIC: read-out: Minimal Inhibitory Concentration
Protocol: as §2

[22] = system: Serratia sp.; assay: In vitro antibacterial activity, agar dilution; type: cell-based; conditions: Serratia sp. TU1-78-15; Mueller-Hinton agar, 18 hours, 35° C.; read-out: Minimal Inhibitory Concentration
Protocol: as §2

Compound: C[C@H](N)C(=O)N[C@@H](COC(=O)C=[N+]=[N-])C(=O)O [LL-D05139β, N-L-alanyl-L-serine diazoacetate]
- T/C × 100 (survival time treated/control) ([1]; 25 mg/kg intraperitoneally on days 1, 5 and 9): 140%
- T/C × 100 (survival time treated/control) ([1]; 50 mg/kg intraperitoneally on days 1, 5 and 9): 150%
- T/C × 100 (survival time treated/control) ([1]; 200 mg/kg intraperitoneally on days 1, 5 and 9): 140%
- T/C ([2]; concentration 2 mgc/ml): 23.2%
- Av. No. of Colonies/Culture ([2]; concentration 2 mgc/ml): 137
- T/C ([2]; concentration 20 mgc/ml): 17.8%
- Av. No. of Colonies/Culture ([2]; concentration 20 mgc/ml): 105
- T/C ([2]; concentration 200 mgc/ml): 13.0%
- Av. No. of Colonies/Culture ([2]; concentration 200 mgc/ml): 78
- activity in human tumor clonogenic (stem cell) assay ([2]; human lung (LX-1) carcinoma, at 2.0 mcg/ml and higher doses): active
- stability in acid ([3]; acid, solutions kept between pH 7 and pH 9.5 during isolation): poor stability
- stability ([3]; below pH 5.0): Decomposes rapidly
- stability ([3]; weakly basic solutions): stable
- T/C ([4]; Colon Carcinoma, concentration 2 mgc/ml, active if T/C ≤30%): 16.0%
- Av. No. of Colonies/Culture ([4]; Colon Carcinoma, concentration 2 mgc/ml, colonies counted after 10-11 days, control 420): 67
- activity in human tumor clonogenic (stem cell) assay ([4]; colon (CX-1) carcinoma, at 2.0 mcg/ml and higher doses): active
- MIC [5]: 64 µg/mL (≈ 262 µM)
- MIC [6]: 128 µg/mL (≈ 524 µM)
- Minimal Inhibitory Concentration ([7]; Providencia stuarti K-81-29): 64 µg/mL
- MIC ([7]; Providencia stuarti SSC-80-78, read-out: Minimal Inhibitory Concentration): 64 µg/mL (≈ 262 µM)
- MIC [8]: 64 µg/mL (≈ 262 µM)
- MIC [9]: 4 µg/mL (≈ 16.4 µM)
- MIC [10]: 16 µg/mL (≈ 65.5 µM)
- MIC ([11]; 18 h, Escherichia coli #31, Mueller-Hinton agar): 4 µg/mL (≈ 16.4 µM)
- MIC ([11]; 18 h, Escherichia coli Stfd-79-20, Mueller-Hinton agar): 8 µg/mL (≈ 32.8 µM)
- MIC ([11]; ATCC25922, 18 h, Escherichia coli ATCC 25922, Mueller-Hinton agar): 8 µg/mL (≈ 32.8 µM)
- MIC ([12]; Enterococcus sp. OSU-75-1, read-out: Minimal Inhibitory Concentration): 64 µg/mL (≈ 262 µM)
- Minimal Inhibitory Concentration ([12]; Enterococcus sp. SM-77-15): 64 µg/mL
- MIC [13]: 32 µg/mL (≈ 131 µM)
- MIC ([14]; Acinetobacter calcoaceticus K-77-1, Mueller-Hinton agar): 128 µg/mL (≈ 524 µM)
- MIC ([14]; Acinetobacter calcoaceticus Stfd-79-17, Mueller-Hinton agar): 512 µg/mL (≈ 2100 µM)
- MIC ([15]; 18 h, Pseudomonas aeruginosa 12-4-4, Mueller-Hinton agar): 128 µg/mL (≈ 524 µM)
- MIC ([15]; 18 h, Pseudomonas aeruginosa SSC-78-13, Mueller-Hinton agar): 512 µg/mL (≈ 2100 µM)
- MIC ([15]; ATCC27853, 18 h, Pseudomonas aeruginosa ATCC 27853, Mueller-Hinton agar): 128 µg/mL (≈ 524 µM)
- MIC [16]: 4 µg/mL (≈ 16.4 µM)
- MIC [17]: 128 µg/mL (≈ 524 µM)
- MIC [18]: 16 µg/mL (≈ 65.5 µM)
- MIC ([19]; Klebsiella pneumoniae AD, Mueller-Hinton agar): 4 µg/mL (≈ 16.4 µM)
- MIC ([19]; Klebsiella pneumoniae SSC-78-1, Mueller-Hinton agar): 128 µg/mL (≈ 524 µM)
- MIC ([19]; Klebsiella pneumoniae Stfd-79-6, Mueller-Hinton agar): 128 µg/mL (≈ 524 µM)
- MIC ([20]; Candida albicans LL #32, Mueller-Hinton agar): 64 µg/mL (≈ 262 µM)
- MIC ([20]; Candida albicans LL #54, Mueller-Hinton agar): 128 µg/mL (≈ 524 µM)
- MIC ([21]; ATCC25923, Staphylococcus aureus ATCC 25923): 16 µg/mL (≈ 65.5 µM)
- Minimal Inhibitory Concentration ([21]; Staphylococcus aureus FU-79-2): 16 µg/mL
- MIC ([21]; Staphylococcus aureus SSC-79-18): 16 µg/mL (≈ 65.5 µM)
- MIC [22]: 64 µg/mL (≈ 262 µM)

From patent publication US4503044A, “Antibiotic LL-D05139 β” (American Cyanamid Company, priority 1983, dated 1985)
